{"source": "patent US20190038659A1", "about": "“METHODS OF TREATING AND PREVENTING AMYOTROPHIC LATERAL SCLEROSIS” (priority 2015, published 2019)", "key": {"VSV-G pseudotyped HERV-K": {"test_system": "VSV-G pseudotyped HERV-K", "test": "cells", "type": "cell-based, human endogenous retrovirus-K (HERV-K)", "conditions": "for IC90: Homo sapiens, HeLa, 144 h, read-out: IC90, HERV-K replication (gag RNA by qPCR)"}, "[1]": {"test_system": "HERV-K reverse transcriptase", "test": "HERV-K RT activity in a cell-free system (PERT assay)", "type": "biochemical, human endogenous retrovirus-K (HERV-K)", "conditions": "inhibitor added to extracted HERV-K RT just prior to PERT assay"}, "HERV-K protease": {"test_system": "HERV-K protease", "test": "HERV-K viral production from pCD-HK/Rev transfected HeLa cells with protease inhibitors (PERT assay of supernatant)", "type": "cell-based, human endogenous retrovirus-K (HERV-K)", "conditions": "for IC90: Homo sapiens; for inhibition of HERV-K viral production (in words): inhibitors added 6 hr after transfection, PERT assay"}, "HERV-K viral transcripts": {"test_system": "HERV-K viral transcripts", "test": "HERV-K activation in human neuronal cultures after neuronal injury (viral transcripts)", "type": "cell-based", "conditions": "human neurons; 3 mM 3-nitropropionic acid, 100 μM N-methyl-D-aspartate or 100 μM hydrogen peroxide, 18 hours"}, "[2]": {"conditions": "2-fold serial dilution 31.25 nM to 1 μM"}, "[3]": {"conditions": "2-fold serial dilution 31.25 nM to 1 μM, PERT 48 hrs, read-out: IC90, HERV-K viral production"}, "[4]": {"conditions": "10-fold serial dilution 0.001 μM-100 μM, PERT 48 hr post-treatment, read-out: IC90, HERV-K protease / viral production, extensive dose-response"}}, "note": "“Also recorded” adds a separate entry of the source. Like-named read-outs stand apart in the source and are kept apart here."}
{"smiles": "Cc1nnc(C(=O)NC(C)(C)c2nc(C(=O)NCc3ccc(F)cc3)c(O)c(=O)n2C)o1", "note": "[Raltegravir]", "values": [{"measurement": "inhibition of HERV-K replication (in words)", "setting": "VSV-G pseudotyped HERV-K", "value": "effectively block; also recorded: inhibited the replication of HERV-K in a dose-dependent manner; also recorded: effectively inhibited"}, {"measurement": "IC90", "setting": "VSV-G pseudotyped HERV-K", "value": 75, "unit": "nM"}]}
{"smiles": "Cc1cn([C@H]2C=C[C@@H](CO)O2)c(=O)[nH]c1=O", "note": "[Stavudine]", "values": [{"measurement": "inhibition of HERV-K RT activity", "setting": "[1]", "value": "significant and dose-dependent inhibition"}]}
{"smiles": "Nc1nc(NC2CC2)c2ncn([C@H]3C=C[C@@H](CO)C3)c2n1", "note": "[Abacavir]", "values": [{"measurement": "inhibition of HERV-K replication (in words)", "setting": "VSV-G pseudotyped HERV-K", "value": "effectively block; also recorded: inhibited HERV-K replication in a dose-dependent manner; also recorded: effectively inhibited"}, {"measurement": "IC90", "setting": "VSV-G pseudotyped HERV-K", "value": 175, "unit": "nM"}, {"measurement": "inhibition of HERV-K RT activity", "setting": "[1]", "value": "significant and dose-dependent inhibition"}]}
{"smiles": "C[C@H](Cn1cnc2c(N)ncnc21)OCP(=O)(O)O", "note": "[Tenofovir]", "values": [{"measurement": "inhibition of HERV-K RT activity", "setting": "[1]", "value": "significant and dose-dependent inhibition"}]}
{"smiles": "Cc1cn([C@H]2C[C@H](N=[N+]=[N-])[C@@H](CO)O2)c(=O)[nH]c1=O", "note": "[Zidovudine]", "values": [{"measurement": "inhibition of HERV-K replication (in words)", "setting": "VSV-G pseudotyped HERV-K", "value": "effectively block; also recorded: inhibited HERV-K replication in a dose-dependent manner; also recorded: effectively inhibited"}, {"measurement": "IC90", "setting": "VSV-G pseudotyped HERV-K", "value": 70, "unit": "nM"}, {"measurement": "inhibition of HERV-K RT activity", "setting": "[1]", "value": "significant and dose-dependent inhibition"}]}
{"smiles": "CC(C)CN(C[C@@H](O)[C@H](Cc1ccccc1)NC(=O)O[C@H]1CO[C@H]2OCC[C@H]21)S(=O)(=O)c1ccc(N)cc1", "note": "[Darunavir]", "values": [{"measurement": "rank among the HIV protease inhibitors tested", "setting": "HERV-K protease; [2]", "value": "highest efficacy; also recorded: two most potent drugs"}, {"measurement": "IC90", "setting": "HERV-K protease; [3]", "value": "~100", "unit": "nM"}, {"measurement": "IC90", "setting": "HERV-K protease; [4]", "value": 71, "unit": "nM"}, {"measurement": "inhibition of HERV-K viral production (in words)", "setting": "HERV-K protease", "value": "inhibited HERV-K protease in a dose-dependent manner"}]}
{"smiles": "O=C1Nc2ccc(Cl)cc2[C@@](C#CC2CC2)(C(F)(F)F)O1", "note": "[Efirvarenz]", "values": [{"measurement": "inhibition of HERV-K RT activity", "setting": "[1]", "value": "significant inhibition"}]}
{"smiles": "OO", "note": "[hydrogen peroxide]", "values": [{"measurement": "activation of HERV-K (viral transcripts)", "setting": "HERV-K viral transcripts", "value": "No activation of HERV-K"}]}
{"smiles": "Cc1cccc(C)c1OCC(=O)N[C@@H](Cc1ccccc1)[C@@H](O)C[C@H](Cc1ccccc1)NC(=O)[C@H](C(C)C)N1CCCNC1=O", "note": "[Lopinavir]", "values": [{"measurement": "rank among the HIV protease inhibitors tested", "setting": "HERV-K protease; [2]", "value": "highest efficacy; also recorded: two most potent drugs"}, {"measurement": "IC90", "setting": "HERV-K protease; [3]", "value": "~100", "unit": "nM"}, {"measurement": "IC90", "setting": "HERV-K protease; [4]", "value": 651, "unit": "nM"}, {"measurement": "inhibition of HERV-K viral production (in words)", "setting": "HERV-K protease", "value": "inhibited HERV-K protease in a dose-dependent manner"}]}
{"smiles": "O=C(O)CC[N+](=O)[O-]", "note": "[3-nitropropionic acid]", "values": [{"measurement": "activation of HERV-K (viral transcripts)", "setting": "HERV-K viral transcripts", "value": "No activation of HERV-K"}]}
{"smiles": "Cc1cc(C#N)cc(C)c1Oc1nc(Nc2ccc(C#N)cc2)nc(N)c1Br", "note": "[Etravirine]", "values": [{"measurement": "inhibition of HERV-K RT activity", "setting": "[1]", "value": "significant inhibition"}]}
{"smiles": "CN[C@H](CC(=O)O)C(=O)O", "note": "[N-methyl-D-aspartate]", "values": [{"measurement": "activation of HERV-K (viral transcripts)", "setting": "HERV-K viral transcripts", "value": "No activation of HERV-K"}]}
{"smiles": "Cc1ccnc2c1NC(=O)c1cccnc1N2C1CC1", "note": "[Nevirapine]", "values": [{"measurement": "inhibition of HERV-K RT activity", "setting": "[1]", "value": "significant inhibition"}]}
